In patent publication EP1661955A1, “Antifouling coating comprising a polymer with functional groups bonded to an enzyme” (Nederlandse Organisatie voor …, priority 2004, dated 2006):
Values after ≈ are worked out from the molar mass of the structure shown.

Tested on: cyprid larvae of the barnacle species Balanus amphitrite
Assay: Barnacle settlement inhibition test, enzymes in solution
Type: in vivo
Conditions: reference compound in solution; concentration at which 50 % settlement reduction takes place
Text: The barnacle settlement test determines settlement inhibitory activity of biocidal compounds. For this test mass reared cyprid larvae of the barnacle species Balanus amphitrite are used. Adult barnacles, kept under standardised conditions, are forced to produce naupliar larvae that are collected and grown up separately at constant temperature and a fixed light:dark period. When larvae reach the cyprid stage, which is the settling phase, they are collected and set apart prior to testing.
Test compounds are usually tested in a range of concentrations prepared directly in seawater or after pre-dissolution in a suitable solvent. Settlement tests are carried out in polystyrene multiwell plates. Wells contain either 1 mL of a test solution or 1 mL of a control solution. Plates are incubated for 24 - 48 hours under constant temperature and light:dark regime to allow settlement and metamorphosis of the cyprids.
After incubation the wells are screened and numbers of settled and non-settled larvae counted using a stereo microscope. Numbers of settled larvae are expressed as a percentage of total larvae in the well. Average % settlement is calculated in four replicates. Subsequently a settlement response curve in relation to substance concentration is drawn and an EC50 value, concentration at which 50 % settlement reduction takes place, calculated. […]

SMILES: CCCCCCCCn1sc(Cl)c(Cl)c1=O [Seanine 211]
- EC50 value: 0.4 µg/mL (≈ 1.42 µM)
